Data from patent US20240000939A1, “METHODS OF PERSONALIZED PRECONDITIONING FOR CELL THERAPY” (priority 2021, published 2024).
Entries after “also recorded” stand apart in the source; their conditions may differ.

How the values were obtained:
[1] = Estimated fludarabine exposure (AUC) calculated with a population PK model; parameters: species or system human
R/R B-cell ALL (B-ALL) = assay: Retrospective PRWCC analysis: response, relapse, composite endpoint (relapse or loss of BCA) and overall survival after tisagenlecleucel; format: in vivo, human; settings: for HR, overall survival, patients with high pre-infusion disease burden: sub-optimal fludarabine exposure
[2] = Retrospective PRWCC analysis: toxicity (CRS, neurotoxicity/ICANS, infection, neutropenia, cause of death) after tisagenlecleucel; format: in vivo, human
Method: Study Design. A retrospective analysis of pediatric and young adult patients with R/R B-ALL as part of the Pediatric Real-World CAR Consortium (PRWCC; n=15 centers) was conducted. Two hundred (n=200) patients underwent collection/manufacture for planned standard-of-care CD19-specific CAR T cell therapy (tisagenlecleucel).
Outcomes of interest. The main outcomes of interest were overall survival (OS), cumulative incidence of relapse (CIR), and the cumulative incidence of a composite endpoint (relapse or loss of BCA). Other outcomes of interest were response rates, cytokine release syndrome (CRS), and immune effector cell associated neurotoxicity syndrome (ICANS). Complete remission (CR) was defined as ≤5% bone marrow blasts by morphology, absence of circulating lymphoblasts, and no evidence of extramedullary disease. MRD negativity was defined as <0.01% abnormal B cells assessed by flow cytometry. Relapse was defined as any (medullary or extramedullary) evidence of hematologic, cytogenetic, and/or molecular recurrence of primary disease. CD19-positive B cell recovery was defined as any detectable CD19-positive B cells ([…]) on a peripheral blood lymphocyte flow cytometry panel. Toxicity grading was described according to ASTCT (Lee et al., Biol Blood Marrow Transplant. 04 2019; 25 (4):625-638) for CRS and ICANS. Additionally, patients were further delineated based on their disease burden: high disease burden (≥5% lymphoblasts, CNS3 disease and/or isolated EM disease), and no (undetectable) or low disease burden (<5% lymphoblasts, ≤CNS2 disease, and/or no detectable EM disease) based off the previous PRWCC analysis (Schultz et al., Blood. 2020; 136 (Supplement 1):14-15). The fludarabine exposure, area under the curve (AUC), for each patient was calculated using a population PK model as previously described in Langenhorst et al., Clin Pharmacokinet. May 2019; 58 (5):627-637. The patient variables required to calculate an estimated fludarabine exposure include estimated GFR (using either the Cockroft-Gault or Schwartz equation depending on age), actual body weight, height, and dosage of fludarabine utilized where actual body weight and estimated GFR are the best predictors of fludarabine PK (Langenhorst et al., Clin Pharmacokinet. May 2019; 58 (5):627-637).
Statistical Analysis. For all analyses, tisagenlecleucel infusion date was considered time zero (0). The impact of different factors on the chance of response was assessed through Mann-Whitney-Wilcoxon test for continuous variables, Chi-squared or Fisher's exact test for categorical variables (univariable analysis), and logistic regression (multivariable analysis). OS for all treated patients was defined as the time from infusion to death from all causes. OS in responding patients was defined as time from day of response (day 28 from CAR infusion) to death from all causes. Patients alive were censored at their last follow-up date. Time-to-relapse was defined as the time from the date of infusion to the date of disease relapse, while time-to-composite endpoint was defined as the time from the date of infusion to the date of either disease relapse or loss of BCA, whichever came first. For both endpoints, patients alive without disease relapse (and loss of BCA for composite endpoint) were censored at their date of last follow-up. Death and allo-HCT without disease relapse (and loss of BCA) were considered competing events. […]

[3] = multivariable, AUC <13.8 (sub-optimal) vs ≥13.8 mg*hr/L (ref), responding patients
[4] = univariable, AUC <13.8 vs ≥13.8 mg*hr/L (ref)
[5] = univariable, AUC <13.8 vs ≥13.8 mg*hr/L (ref), responding patients

**Q.** For `Nc1nc(F)nc2c1ncn2[C@@H]1O[C@H](CO)[C@@H](O)[C@@H]1O` [fludarabine, reference compound], which “fludarabine AUC threshold of interest for disease relapse” value ([1]; Example 1, exposure analyzed as continuous variable (FIG. 1)) is on record?
**A.** 13.8 mg·h/L

**Q.** And the “optimal fludarabine exposure (AUC)” value ([1]; Example 2, where hazard ratio curve for CIR crosses HR=1)?
**A.** ≥ 13.8 mg·h/L

**Q.** And the “odds ratio of response by cumulative Flu AUC (mg*hr/L)” value (R/R B-cell ALL (B-ALL); multivariable analysis, AUC as continuous variable)?
**A.** 0.81

**Q.** And the “HR, overall survival in responding patients” value (R/R B-cell ALL (B-ALL); multivariable, AUC <13.8 (sub-optimal) vs ≥13.8 mg*hr/L (ref))?
**A.** 1.97

**Q.** And the “HR, overall survival in all treated patients” value (R/R B-cell ALL (B-ALL); multivariable, AUC <13.8 (sub-optimal) vs ≥13.8 mg*hr/L (ref), entire cohort)?
**A.** 1.53

**Q.** What about the “HR, cumulative incidence of composite endpoint (relapse or loss of B-cell aplasia)” value (R/R B-cell ALL (B-ALL); [3]) of the same compound?
**A.** 1.96

**Q.** And the “HR, cumulative incidence of relapse” value (R/R B-cell ALL (B-ALL); [3])?
**A.** 2.45

**Q.** What about the “HR, overall survival, patients with high pre-infusion disease burden” value (R/R B-cell ALL (B-ALL); all treated patients) of the same compound?
**A.** 2.27

**Q.** What about the “HR, overall survival, patients with high pre-infusion disease burden” value (R/R B-cell ALL (B-ALL); responding patients only) of the same compound?
**A.** 3.50

**Q.** What about the “HR, overall survival in all treated patients” value (R/R B-cell ALL (B-ALL); [4]) of the same compound?
**A.** 1.51

**Q.** What about the “HR, overall survival in responding patients” value (R/R B-cell ALL (B-ALL); [4]) of the same compound?
**A.** 2.25

**Q.** What about the “HR, cumulative incidence of composite endpoint (relapse or loss of B-cell aplasia)” value (R/R B-cell ALL (B-ALL); [5]) of the same compound?
**A.** 1.77

**Q.** And the “HR, cumulative incidence of relapse” value (R/R B-cell ALL (B-ALL); [5])?
**A.** 1.95

**Q.** And the “patients who died from infection” value ([2]; all received suboptimal fludarabine)?
**A.** four

**Q.** And the “infection risk with increased fludarabine exposure (≥13.8 mg*hr/L)” value ([2]; in vivo)?
**A.** no apparent increased infection risk

**Q.** What about the “association of optimal fludarabine exposure with toxicity (CRS, neurotoxicity)” value ([2]; neurotoxicity limited to ICANS graded patients) of the same compound?
**A.** not associated with increased CRS or neurotoxicity; also recorded: No increase in toxicity

**Q.** What about the “ICANS grade ≥3 (sICANS)” value ([2]; optimal flu (≥13.8 mg*hr/L), 5/67) of the same compound?
**A.** 7%

**Q.** And the “ICANS grade ≥3 (sICANS)” value ([2]; optimal flu (≥13.8 mg*hr/L), 5/67, listed as flu)?
**A.** (7%)

**Q.** What about the “ICANS grade ≥1” value ([2]; optimal flu (≥13.8 mg*hr/L), 15/67) of the same compound?
**A.** 22%

**Q.** What about the “ICANS grade ≥1” value ([2]; optimal flu (≥13.8 mg*hr/L), 15/67, listed as flu) of the same compound?
**A.** (22%)

**Q.** And the “CRS grade ≥3 (sCRS)” value ([2]; optimal flu (≥13.8 mg*hr/L), 18/102)?
**A.** 18%

**Q.** What about the “CRS grade ≥3 (sCRS)” value ([2]; optimal flu (≥13.8 mg*hr/L), 18/102, listed as flu) of the same compound?
**A.** (18%)

**Q.** And the “infection post CAR T cell therapy” value ([2]; optimal fludarabine exposure, 36/102)?
**A.** 35%

**Q.** What about the “Grade 4 neutropenia” value ([2]; patients receiving optimal fludarabine) of the same compound?
**A.** 65%

**Q.** And the “Grade 4 neutropenia” value ([2]; patients receiving suboptimal fludarabine)?
**A.** 67%

**Q.** What about the “ICANS grade ≥3 (sICANS)” value ([2]; sub-optimal flu (<13.8 mg*hr/L), 4/31) of the same compound?
**A.** 13%

**Q.** What about the “ICANS grade ≥3 (sICANS)” value ([2]; sub-optimal flu (<13.8 mg*hr/L), 4/31, listed as flu) of the same compound?
**A.** (13%)

**Q.** What about the “ICANS grade ≥1” value ([2]; sub-optimal flu (<13.8 mg*hr/L), 9/31) of the same compound?
**A.** 29%

**Q.** What about the “ICANS grade ≥1” value ([2]; sub-optimal flu (<13.8 mg*hr/L), 9/31, listed as flu) of the same compound?
**A.** (29%)

**Q.** And the “CRS grade ≥3 (sCRS)” value ([2]; sub-optimal flu (<13.8 mg*hr/L), 15/50)?
**A.** 30%

**Q.** And the “CRS grade ≥3 (sCRS)” value ([2]; sub-optimal flu (<13.8 mg*hr/L), 15/50, listed as flu)?
**A.** (30%)

**Q.** What about the “infection post CAR T cell therapy” value ([2]; suboptimal fludarabine exposure, 21/50) of the same compound?
**A.** 42%

**Q.** With tisagenlecleucel as the compound, how does the “12-month OS” value (R/R B-cell ALL (B-ALL); Example 1) read?
**A.** 75%

**Q.** And the “12-month cumulative incidence of relapse in responders” value (R/R B-cell ALL (B-ALL); Example 1)?
**A.** 39.2%

**Q.** What about the “12-month CIR in responding patients” value (R/R B-cell ALL (B-ALL); Example 2) of the same compound?
**A.** 36.4%

**Q.** What about the “12-month OS” value (R/R B-cell ALL (B-ALL); Example 2, entire cohort) of the same compound?
**A.** 75.1%

**Q.** What about the “24-month OS” value (R/R B-cell ALL (B-ALL); Example 2, entire cohort) of the same compound?
**A.** 56.5%

**Q.** What about the “cumulative incidence of composite endpoint (relapse or loss of BCA)” value (R/R B-cell ALL (B-ALL); at 12-months, responding patients) of the same compound?
**A.** 55.2%

**Q.** What about the “loss of BCA post CAR” value (R/R B-cell ALL (B-ALL); n=152) of the same compound?
**A.** (34%)

**Q.** And the “relapsed post CAR” value (R/R B-cell ALL (B-ALL); n=152)?
**A.** (36%)

**Q.** And the CD19-negative relapse (R/R B-cell ALL (B-ALL); share of relapses post CAR)?
**A.** (45%)

**Q.** What about the CD19-positive relapse (R/R B-cell ALL (B-ALL); share of relapses post CAR) of the same compound?
**A.** (55%)

**Q.** And the “severe neurotoxicity (grade 3 or higher)” value ([2]; all patients, 12/152)?
**A.** 8%

**Q.** What about the “severe CRS (sCRS; grade 3 or higher)” value ([2]; all patients, 33/152) of the same compound?
**A.** 22%

**Q.** And the neurotoxicity ([2]; all patients, 36/152)?
**A.** 24%

**Q.** And the “infection post CAR T cell therapy” value ([2]; all patients, 57/152)?
**A.** 38%

**Q.** What about the “Grade 4 neutropenia” value ([2]; all patients, 97/148) of the same compound?
**A.** 66%

**Q.** What about the CRS ([2]; all patients, 97/152) of the same compound?
**A.** 64%

**Q.** What about the “CRS grade 1” value ([2]; n=152) of the same compound?
**A.** (24%)

**Q.** What about the “CRS grade 2” value ([2]; n=152) of the same compound?
**A.** (18%)

**Q.** What about the “CRS grade 3” value ([2]; n=152) of the same compound?
**A.** (11%)

**Q.** What about the “CRS grade 4” value ([2]; n=152) of the same compound?
**A.** (10%)

**Q.** What about the “CRS grade 5” value ([2]; n=152) of the same compound?
**A.** (1%)

**Q.** What about the CRS grade none ([2]; n=152) of the same compound?
**A.** (36%)

**Q.** And the “Neurotoxicity grade 1” value ([2]; n=152)?
**A.** (11%)

**Q.** And the “Neurotoxicity grade 2” value ([2]; n=152)?
**A.** (5%)

**Q.** And the “Neurotoxicity grade 3” value ([2]; n=152)?
**A.** (5%)

**Q.** And the “Neurotoxicity grade 4” value ([2]; n=152)?
**A.** (2%)

**Q.** What about the “Neurotoxicity grade 5” value ([2]; n=152) of the same compound?
**A.** (1%)

**Q.** What about the Neurotoxicity grade none ([2]; n=152) of the same compound?
**A.** (76%)

**Q.** What about the “Cause of death: ARDS/cardiac arrest” value ([2]; share of deaths) of the same compound?
**A.** (2%)

**Q.** What about the “Cause of death: CRS” value ([2]; share of deaths) of the same compound?
**A.** (2%)

**Q.** And the “Cause of death: Infection” value ([2]; share of deaths)?
**A.** (10%)

**Q.** And the “Cause of death: Leukemia” value ([2]; share of deaths)?
**A.** (74%)

**Q.** And the “Cause of death: Neurotoxicity” value ([2]; share of deaths)?
**A.** (2%)

**Q.** And the “Cause of death: Transplant related” value ([2]; share of deaths)?
**A.** (7%)
